{
  "source": "patent US6469055B2",
  "about": "“Compositions and methods for treatment of neurological disorders and neurodegenerative diseases” (Massachusetts Institute of Technology, priority 1996, dated 2002)",
  "key": {"[1]": {"tested_on": "secreted APP (APPs)", "assay": "APPs secretion into the media of cultured cortical astrocytes, Western blot", "assay_type": "cell-based, rat", "protocol": "Astrocytes are isolated from cortices from postnatal rats. […] Media are changed twice weekly.\nTo detect secreted APP, culture media was collected after drug treatments and phenylmethylsulfonyl fluoride was added to a final concentration of 2 mM. The media samples were then applied to Sephadex PD-10 desalting columns (Pharmacia) and eluted with distilled water. Column eluates were frozen and dried by vacuum centrifugation. The lyophilized proteins were reconstituted in 25 μL water followed by 25 μL of 2X Laemmli gel loading buffer, and boiled for 5 min.\n(§1) Assays of PI hydrolysis are conducted as previously reported. Also, measurements of APPs are conducted as previously reported."}, "[2]": {"tested_on": "APP holoprotein", "assay": "Cell-associated APP (APP holoprotein), Western blot, cultured cortical astrocytes", "conditions": "for effect on cell-associated APP (APP holoprotein): PMA 5 μM or DNF 100 μM, hydrochloride; for effect on cell-associated APP (APP holoprotein) / effect on the increase in APP holoprotein stimulated by PG E2: 24 h; for effect on basal APP holoprotein: p>0.05; for effect on the increase in APP holoprotein stimulated by PG E2: PG E2 10 μM", "method": "Astrocytes are isolated from cortices from postnatal rats. […] In brief, dissected cortices were dissociated by trypsinization and trituration through a flame-polished Pasteur pipette. Cells were plated onto poly-L-lysine coated 35- or 100 mm culture dishes at densities of about 10-25 cells/mm^2. […] Media are changed twice weekly. […] Pharmacological manipulations are performed in serum-free media on 7-14 DIV confluent astrocytes.\nTo detect cell-associated protein (APP or GFAP), astrocytes from 35 mm dishes are scraped in lysis buffer (60 mM Tris/HCl, 4% SDS, 20% glycerol, 1 mM dithiothreitol), ultrasonicated and boiled for 5 min. The total amount of cell protein per dish, estimated using the bicinchoninic acid assay, is not altered by pharmacological treatments. Bromphenol blue (0.1%) is added to each sample and equal amounts of protein (˜75 mg/lane) are loaded on 10% SDS-polyacrylamide gels.\n(§2) The amount of media or cell protein loaded for sodium dodecyl sulfate-polyacrylamide gel electrophoresis (10-20% SDS PAGE; Bio-Rad) was normalized for the amount of protein per sample. […] After 2×10 min rinses in TBST, the membranes were incubated in TBST containing an appropriate antibody. Monoclonal antibodies 22C11 and GFAP (both from Boehringer-Mannheim) were used to detect the N-terminus of APP and glial fibrillary acidic protein respectively; antisera R37 and R98 (gifts of Dr. F. Kametani, Tokyo Institute of Psychiatry) were used to detected the C-terminus and KPI motifs of APP respectively; antiserum C8 (gift of Dr. D. Selkoe, Women's Hospital, Harvard Medical School, Cambridge, Mass.) was used to detect the C-terminus of APP.\nAfter an overnight incubation, membranes were rinsed in TBST before being treated for 1h with a peroxidase-linked secondary antibody. After several rinses in TBST, protein bands were visualized on Kodak X-AR films by an enhanced chemiluminescence method (Amersham). Optical densities of the protein bands were quantitated by laser scanning densitometry (LKB, Bromma, Sweden), and normalized to the densities of those bands generated under control conditions."}, "[3]": {"tested_on": "PI hydrolysis", "assay": "PI hydrolysis in cultured astrocytes", "assay_type": "cell-based, rat", "protocol": "as §1"}, "[4]": {"tested_on": "APP mRNA", "assay": "APP mRNA, Northern blot, cultured cortical astrocytes", "conditions": "for effect on the increase in APP mRNA stimulated by PG E2: EGTA or KN-93 100 μM, PG E2 10 μM", "method": "Pharmacological manipulations are performed in serum-free media on 7-14 DIV confluent astrocytes.\nTotal RNA from astrocytes grown on 100 mm dishes is extracted by the acid guanidium thiocyanate-phenol-chloroform method. […] In brief, the medium was aspirated and the cells were scraped in 1 mL of TRI Reagent. After incubation for 15 min at room temperature, 0.2 ml chloroform was added, mixed vigorously with TRI Reagent and the mixture was stored for another 15 min at room temperature. After centrifugation at 12,000 g for 15 min, 0.5 ml isopropanol was added to the aqueous phase of the mixture to precipitate RNA. The RNA pellet collected by centrifugation (12,000 g, 15 min at 4° C.) was washed with 70% ethanol. once and solubilized in an appropriate amount of Formazol (Molecular Research Center, Cincinnati, Ohio). […] RNA was blotted onto Hybond polyvinyl membranes by overnight capillary transfer and fixed onto the membranes by UV light illumination. […] Membranes were dried and exposed to Kodak X-ray film for 24-48 h with an Amersham enhancer sheet. The relative amounts of mRNA obtained by hybridization were estimated using densitometric analysis of autoradiographs. The levels of APP mRNA were normalized to the amounts of G3PDH mRNA and expressed as a ratio to the levels of untreated, control cells."}, "[5]": {"tested_on": "cellular cAMP levels", "assay": "cAMP assay in cultured astrocytes", "assay_type": "cell-based, rat", "conditions": "for effect on cellular cAMP levels stimulated by PG E2: EGTA or KN-93, PG E2 10 μM", "protocol": "In brief, after aspirating the medium and rinsing twice with 1 ml ice cold PBS, the cells were scraped in 0.8 ml ice cold ethanol and sonicated. […] After resuspension in 120 μl Tris/EDTA buffer, two duplicate samples of 50 μl each were mixed with the binding protein, [8-^3H] adenosine 3′, 5′-cyclic phosphate tracer and incubated at 2-4° C. for 2 h. A charcoal suspension (100 μl) was added to the samples before centrifugation and 200 μl of the supernatant were removed for. scintillation counting. The amount of cyclic AMP (pmol/mg protein) was estimated by comparing to known standards, and normalized to the amounts of whole cell protein as determined by the bicinchoninic acid assay (Sigma)."}, "[6]": {"tested_on": "APP synthesis", "assay": "APP synthesis (APP mRNA and holoprotein) in cultured cortical astrocytes", "assay_type": "cell-based, rat"}, "[7]": {"tested_on": "glial fibrillary acidic protein (GFAP)", "assay": "GFAP protein in cultured astrocytes, Western blot", "assay_type": "cell-based, rat", "conditions": "8Br-cAMP or NE", "method": "To detect cell-associated protein (APP or GFAP), astrocytes from 35 mm dishes are scraped in lysis buffer (60 mM Tris/HCl, 4% SDS, 20% glycerol, 1 mM dithiothreitol), ultrasonicated and boiled for 5 min. […] Bromphenol blue (0.1%) is added to each sample and equal amounts of protein (˜75 mg/lane) are loaded on 10% SDS-polyacrylamide gels.\nas §2\nAfter an overnight incubation, membranes were rinsed in TBST before being treated for 1h with a peroxidase-linked secondary antibody. After several rinses in TBST, protein bands were visualized on Kodak X-AR films by an enhanced chemiluminescence method (Amersham). […]"}, "[8]": {"tested_on": "astrocytes", "assay": "Process formation of cultured astrocytes", "assay_type": "cell-based, rat"}, "[9]": {"conditions": "DFU or DFP 10^-9-10^-3 M, 1 h, cultured astrocytes"}},
  "note": "“Also recorded” adds a separate entry of the source. Where a name gives a salt, the structure may show the parent alone.",
  "data": [
    {"smiles": "CC1(C)OC(=O)C(c2cccc(F)c2)=C1c1ccc(S(C)(=O)=O)cc1", "note": "[DFU, 5,5-dimethyl-3-(3-fluorophenyl)-4-(4-methylsulphonyl)phenyl-2(5H)-furanone]", "values": [
      {"measurement": "secretion of soluble APPs", "setting": "[1]; [9]", "result": "increases; also recorded: promotes"},
      {"measurement": "levels of cellular APP holoprotein", "setting": "[2]; [9]", "result": "decreases"}
    ]},
    {"smiles": "C[C@H](N)Cc1cccc(C(F)(F)F)c1", "note": "[DNF, dexnorfenfluramine hydrochloride]", "values": [
      {"measurement": "APPs secretion relative to untreated cells", "setting": "[1]; PMA 5 μM or DNF 100 μM, 1 hour, mAb22C11", "result": "significantly increases"},
      {"measurement": "APPs secretion, to that of untreated cells", "setting": "[1]; PMA 5 μM, dexnorfenfluramine 100 μM", "result": "~2.2", "unit": "fold"},
      {"measurement": "PI hydrolysis relative to untreated astrocytes", "setting": "[3]; dexnorfenfluramine 100 μM, p<0.05", "result": "~2.6", "unit": "fold"},
      {"measurement": "effect on APP mRNA", "setting": "[4]; PMA 5 μM or dexnorfenfluramine 100 μM", "result": "does not increase"},
      {"measurement": "effect on cell-associated APP (APP holoprotein)", "setting": "[2]", "result": "no effect"},
      {"measurement": "effect on cell-associated APP (APP holoprotein)", "setting": "[2]; listed as dexnorfenfluramine", "result": "does not increase"}
    ]},
    {"smiles": "O=C(O)CN(CCOCCOCCN(CC(=O)O)CC(=O)O)CC(=O)O", "note": "[EGTA]", "values": [
      {"measurement": "effect on basal cAMP levels", "setting": "[5]; EGTA or KN-93 100 μM alone", "result": "no significant effect"},
      {"measurement": "effect on cellular cAMP levels stimulated by PG E2", "setting": "[5]", "result": "Neither EGTA nor KN-93 had a significant effect"},
      {"measurement": "effect on the increase in APP mRNA stimulated by PG E2", "setting": "[4]; 24 h", "result": "significantly inhibited"},
      {"measurement": "effect on basal APP holoprotein", "setting": "[2]; EGTA or KN-93 100 μM alone", "result": "no significant effect"},
      {"measurement": "effect on the increase in APP holoprotein stimulated by PG E2", "setting": "[2]; EGTA or KN-93 100 μM", "result": "significantly inhibited"}
    ]},
    {"smiles": "C=CC[C@@H]1/C=C(\\C)C[C@H](C)C[C@H](OC)[C@H]2O[C@@](O)(C(=O)C(=O)N3CCCC[C@H]3C(=O)O[C@H](/C(C)=C/[C@@H]3CC[C@@H](O)[C@H](OC)C3)[C@H](C)[C@@H](O)CC1=O)[C@H](C)C[C@@H]2OC", "note": "[FK-506]", "values": [
      {"measurement": "effect on basal cAMP levels", "setting": "[5]; cyclosporin A or FK-506 (50 μM) alone", "result": "no significant effect"},
      {"measurement": "effect on basal APP holoprotein", "setting": "[2]; cyclosporin A or FK-506 50 μM alone", "result": "no significant effect"}
    ]},
    {"smiles": "NCCNS(=O)(=O)c1cccc2cnccc12", "note": "[H9]", "values": [
      {"measurement": "effect on APP synthesis", "setting": "[6]", "result": "decrease or inhibit"}
    ]},
    {"smiles": "Cl.Cl.O=S(=O)(NCCNC/C=C/c1ccc(Br)cc1)c1cccc2cnccc12", "note": "[H-89, H-89 dihydrochloride]", "values": [
      {"measurement": "effect on PG E2-stimulated APP mRNA production", "setting": "[4]; H-89 dihydrochloride", "result": "blocked"},
      {"measurement": "effect on the increase in APP holoprotein stimulated by PG E2", "setting": "[2]; H-89 100 μM", "result": "completely abolished"}
    ]},
    {"smiles": "COc1ccc(S(=O)(=O)N(CCO)c2ccccc2CN(C)CC=Cc2ccc(Cl)cc2)cc1.O=P(O)(O)O", "note": "[KN-93, N-[2-[[[3-(4′-chlorophenyl)-2-propenyl]methylamino]methyl]phenyl]-N-(2-hydroxyethyl)-4′-methoxy-benzenesulfonamide phosphate]", "values": [
      {"measurement": "effect on basal cAMP levels", "setting": "[5]; EGTA or KN-93 100 μM alone", "result": "no significant effect"},
      {"measurement": "effect on cellular cAMP levels stimulated by PG E2", "setting": "[5]", "result": "Neither EGTA nor KN-93 had a significant effect"},
      {"measurement": "effect on the increase in APP mRNA stimulated by PG E2", "setting": "[4]; 24 h", "result": "significantly inhibited"},
      {"measurement": "effect on basal APP holoprotein", "setting": "[2]; EGTA or KN-93 100 μM alone", "result": "no significant effect"},
      {"measurement": "effect on the increase in APP holoprotein stimulated by PG E2", "setting": "[2]; EGTA or KN-93 100 μM", "result": "significantly inhibited"}
    ]},
    {"smiles": "NC[C@H](O)c1ccc(O)c(O)c1", "note": "[NE, norepinephrine]", "values": [
      {"measurement": "cAMP formation", "setting": "[5]; NE 50 μM, 1 h", "result": "significantly increased"},
      {"measurement": "PI hydrolysis", "setting": "[3]; NE 50 μM, 1 h", "result": "significantly increased"},
      {"measurement": "glial fibrillary acidic protein immunoreactivity", "setting": "[7]", "result": "increase"},
      {"measurement": "process formation in astrocytes", "setting": "[8]", "result": "increase"},
      {"measurement": "APP mRNA levels versus untreated cells", "setting": "[4]; 24 h, NE 50 or 100 μM, isoproterenol 50 μM, Northern blot", "result": "about 1.7 fold"},
      {"measurement": "APP mRNA level versus NE concentration", "setting": "[4]; NE 50-400 μM", "result": "do not increase linearly"},
      {"measurement": "APP mRNA, of untreated cells", "setting": "[4]; NE 50 or 100 μM, isoproterenol 50 μM", "result": 180, "unit": "%"},
      {"measurement": "APP holoprotein in cell lysates, of that seen in untreated cells", "setting": "[2]; 8Br-cAMP or NE, antibodies 22C11 and R37", "result": 200, "unit": "%"},
      {"measurement": "amount of cell-associated APP holoprotein relative to untreated cells", "setting": "[2]; NE 50 μM, about 24 h, Western blot", "result": "~1.7", "unit": "fold"},
      {"measurement": "cell-associated APP relative to untreated control cells", "setting": "[2]; NE 50 μM, mAb22C11, p<0.05", "result": "significantly more"},
      {"measurement": "APP holoprotein level versus NE concentration", "setting": "[2]; NE 50-400 μM", "result": "do not increase linearly"}
    ]}
  ]
}
